What is called EC50 is the concentration needed to bring the measured effect to its halfway point.

Eight compounds from patent US10786484B2, “Mono- or di-substituted indole derivatives as dengue viral replication inhibitors” (Janssen Pharmaceuticals, Inc., priority 2015, dated 2020) can be followed below.

The subject of data set [1] is DENV-2 16681 strain labeled with eGFP. Kind of data set: DENV-2 antiviral assay (eGFP fluorescence read-out in Vero cells). Format: cell-based, Dengue virus. Conditions: DENV-2 16681 eGFP, MOI 0.5, 3 days. The protocol: The antiviral activity of all the compounds of the invention was tested against the DENV-2 16681 strain which was labeled with enhanced green fluorescent protein (eGPF). The culture medium consists of minimal essential medium supplemented with 2% of heat-inactivated fetal calf serum, 0.04% gentamycin (50 mg/mL) and 2 mM of L-glutamine. Vero cells, obtained from ECACC, were suspended in culture medium and 25 μL was added to 384-well plates (2500 cells/well), which already contain the antiviral compounds. Typically, these plates contain a 5-fold serial dilution of 9 dilution steps of the test compound at 200 times the final concentration in 100% DMSO (200 nL). […] Finally, each plate contains wells which are assigned as virus controls (containing cells and virus in the absence of compound), cell controls (containing cells in the absence of virus and compound) and medium controls (containing medium in the absence of cells, virus and compounds). To the wells assigned as medium control, 25 μL of culture medium was added instead of Vero cells. Once the cells were added to the plates, the plates were incubated for 30 minutes at room temperature to allow the cells to distribute evenly within the wells. Next, the plates were incubated in a fully humidified incubator (37° C., 5% CO2) until the next day. Then, DENV-2 strain 16681, labeled with eGFP, was added at a multiplicity of infection (MOI) of 0.5. Therefore, 15 μL of virus suspension was added to all the wells containing test compound and to the wells assigned as virus control. In parallel, 15 μL of culture medium was added to the medium and cell controls. Next, the plates were incubated for 3 days in a fully humidified incubator (37° C., 5% CO2). At the day of the read out, the eGFP fluorescence was measured using an automated fluorescence microscope at 488 nm (blue laser). Using an in-house LIMS system, inhibition dose response curves for each compound were calculated and the half maximal effective concentration (EC50) was determined. Therefore, the percent inhibition (I) for every test concentration is calculated using the following formula: I=100*([…])/(SVC−SCC); ST, SCC and SVC are the amount of eGFP signal in the test compound, cell control and virus control wells, respectively. The EC50 represents the concentration of a compound at which the virus replication is inhibited with 50%, as measured by a 50% reduction of the eGFP fluorescent intensity compared to the virus control. The EC50 is calculated using linear interpolation (Table 1).

Data set [2] deals with DENV-1 strain TC974#666. Kind of data set: Tetravalent RT-qPCR assay Protocol A, serotype 1. The class given is cell-based. The note with it: Dengue virus, DENV1, 72 h; RT-qPCR serotype 1 TC974#666, Vero cells, day 3. The protocol: (§1) The antiviral activity of the compounds of the invention was tested against DENV-1 strain TC974#666 (NCPV), DENV-2 strain 16681, DENV-3 strain H87 (NCPV) and DENV-4 strains H241 (NCPV) and EDEN (SG/06K2270DK1/2005; GenBank accession number QG398256) in a RT-qPCR assay. Therefore, Vero cells were infected with either DENV-1, or -2, or -3, or -4 in the presence or absence of test compounds. At day 3 post-infection, the cells were lysed and cell lysates were used to prepare cDNA of both a viral target (the 3′UTR of DENV; Table 2) and a cellular reference gene (β-actin, Table 2). Subsequently, a duplex real time PCR was performed on a Lightcycler480 instrument. The generated Cp value is inversely proportional to the amount of RNA expression of these targets. Inhibition of DENV replication by a test compound results in a shift of Cp's for the 3′UTR gene. On the other hand, if a test compound is toxic to the cells, a similar effect on β-actin expression will be observed. The comparative ΔΔCp method is used to calculate EC50, which is based on the relative gene expression of the target gene (3′UTR) normalized with the cellular housekeeping gene (β-actin). In addition, CC50 values are determined based on the Cp values acquired for the housekeeping gene β-actin.
(§2) The culture medium consisted of minimal essential medium supplemented with 2% of heat-inactivated fetal calf serum, 0.04% gentamycin (50 mg/mL) and 2 mM of L-glutamine. Vero cells, obtained from ECACC, were suspended in culture medium and 75 μL/well was added in 96-well plates (10000 cells/well), which already contain the antiviral compounds. […] In addition, each plate contains wells which are assigned as virus controls (containing cells and virus in the absence of compound) and cell controls (containing cells in the absence of virus and compound). Once the cells were added in the plates, the plates were incubated in a fully humidified incubator (37° C., 5% CO2) until the next day. Dengue viruses serotype-1, 2, 3 and 4 were diluted in order to obtain a Cp of ˜22-24 in the assay. Therefore, 25 μL of virus suspension, was added to all the wells containing test compound and to the wells assigned as virus control. In parallel, 25 μL of culture medium was added to the cell controls. Next, the plates were incubated for 3 days in a fully humidified incubator (37° C., 5% CO2). After 3 days, the supernatant was removed from the wells and the cells were washed twice with ice-cold PBS (−100 μL). The cell pellets within the 96-well plates were stored at −80° C. for at least 1 day. Next, RNA was extracted using the Cells-to-CT™ lysis kit, according to the manufacturer's guideline (Life Technologies). The cell lysates can be stored at −80° C. or immediately used in the reverse transcription step.
(§3) In preparation of the reverse transcription step, mix A (table 3A) was prepared and 7.57 μL/well was dispensed in a 96-well plate. After addition of 5 μL of the cell lysates, a five minute denaturation step at 75° C. was performed (table 3B). Afterwards, 7.43 μL of mix B was added (table 3C) and the reverse transcription step was initiated (table 3D) to generate cDNA.
(§4) Finally, a RT-qPCR mix was prepared, mix C (table 4A), and 22.02 μL/well was dispensed in 96-well LightCycler qPCR plates to which 3 μL of cDNA was added and the qPCR was performed according to the conditions in table 4B on a LightCycler 480.
(§5) Using the LightCycler software and an in-house LIMS system, dose response curves for each compound were calculated and the half maximal effective concentration (EC50) and the half maximal cytotoxic concentration (CC50) were determined (Tables 5-8).
Background: In qPCR the cycle at which signal appears reflects the starting amount.

The subject of data set [3] is DENV-2 strain 16681. Put plainly: Tetravalent RT-qPCR assay Protocol A, serotype 2. Format: cell-based. The note with it: Dengue virus, DENV2, 72 h; RT-qPCR serotype 2 16681, Vero cells, day 3. The protocol:
as §1, §2, §3, §4, §5

Data set [4] deals with DENV-3 strain H87. Put plainly: Tetravalent RT-qPCR assay Protocol A, serotype 3. The class given is cell-based. The note with it: Dengue virus, DENV3, 72 h; RT-qPCR serotype 3 H87, Vero cells, day 3. The protocol:
as §1, §2, §3, §4, §5

Data set [5] deals with DENV-4 strain H241. Put plainly: Tetravalent RT-qPCR assay Protocol A, serotype 4 H241. Conditions: Dengue virus, DENV4, 72 h; RT-qPCR serotype 4 H241, Vero cells, day 3. The class given is cell-based. On the procedure:
as §1, §2, §3, §4, §5

In data set [6] the test system is DENV-4 strain EDEN (SG/06K2270DK1/2005). Put plainly: Tetravalent RT-qPCR assay Protocol A, serotype 4 EDEN. The note with it: Dengue virus, DENV4, 72 h; RT-qPCR serotype 4 EDEN, Vero cells, day 3. Format: cell-based. On the procedure: as §1, §2, §3, §4, §5
A short description of data set [7]: in vitro. The note with it: African green monkey.
The nature of data set [8]: in vitro. The class given is cell-based. Conditions: African green monkey, CC50. On the procedure:
as §1, §2, §5

In data set [9] the test system is Vero cells. The note with it: African green monkey.

For `COc1cc(NC(C(=O)c2c[nH]c3cc(F)ccc23)c2ccc(F)cc2OCCO)cc(S(C)(=O)=O)c1` (single isomer, unassigned) [Compound 1A, 1-(6-fluoro-1H-indol-3-yl)-2-(4-fluoro-2-(2-hydroxyethoxy)phenyl)-2-((3-methoxy-5-(methylsulfonyl)phenyl)amino)ethanone], the half-maximal effective concentration (EC50) was 0.78 nM in data set [1]; 8.5 nM in [2]; 1.1 nM in data set [3]; 68 nM in data set [4]; 290 nM in data set [5]; 3.6 nM in [6]. The compound further displayed a CC50 in data set [7] of 8600 nM.

Consider `COc1cc(NC(C(=O)c2c[nH]c3cc(Cl)ccc23)c2ccc(F)cc2OCCO)cc(S(C)(=O)=O)c1` (single isomer, unassigned) [Compound 2A, 1-(6-chloro-1H-indol-3-yl)-2-(4-fluoro-2-(2-hydroxyethoxy)phenyl)-2-((3-methoxy-5-(methylsulfonyl)phenyl)amino)-ethanone], for which the concentration for a half-maximal effect (EC50) in [1] worked out at 0.32 nM; in data set [2] it was 2.8 nM; in data set [3] it was 0.4 nM; in data set [4] it was 48 nM; in [5] it was 170 nM; in [6], 2.3 nM. In data set [8], this compound showed a CC50 at 3 days of 4800 nM. In [9], this compound had a CC50 of 4900 nM.

Consider `COc1cc(NC(C(=O)c2c[nH]c3c(C)c(F)ccc23)c2ccc(F)cc2OCCO)cc(S(C)(=O)=O)c1` (single isomer, unassigned) [Compound 3A, 2-(4-fluoro-2-(2-hydroxyethoxy)phenyl)-1-(6-fluoro-7-methyl-1H-indol-3-yl)-2-((3-methoxy-5-(methylsulfonyl)phenyl)amino)ethanone], for which the EC50 was 0.4 nM in [1]; 3.3 nM in [2]; 0.43 nM in [3]; 45 nM in data set [4]; 190 nM in [5]; 5.1 nM in data set [6]. Moreover, the CC50 at 3 days in data set [8] was more than 2500 nM. The compound also returned a CC50 in data set [9] of 4000 nM.

Take `COc1cc(NC(C(=O)c2c[nH]c3c(C)c(Cl)ccc23)c2ccc(F)cc2OCCO)cc(S(C)(=O)=O)c1` (single isomer, unassigned) [Compound 4B, 1-(6-chloro-7-methyl-1H-indol-3-yl)-2-(4-fluoro-2-(2-hydroxyethoxy)phenyl)-2-((3-methoxy-5-(methylsulfonyl)phenyl)amino)ethanone]: the concentration for a half-maximal effect (EC50) turned out to be 0.2 nM in data set [1]; 3.3 nM in data set [2]; 0.21 nM in data set [3]; 55 nM in data set [4]; 140 nM in data set [5]; 3.2 nM in [6]. This compound registered a CC50 at 3 days in [8] of more than 2500 nM. For the same compound, in data set [9], the CC50 was determined as 3800 nM.

Take `COc1cc(NC(C(=O)c2c[nH]c3cc(OC)c(C)cc23)c2ccc(F)cc2OCCO)cc(S(C)(=O)=O)c1` (single isomer, unassigned) [Compound 6A, 2-(4-fluoro-2-(2-hydroxyethoxy)phenyl)-2-((3-methoxy-5-(methylsulfonyl)phenyl)amino)-1-(6-methoxy-5-methyl-1H-indol-3-yl)ethanone]: the EC50 stood at 0.47 nM in data set [1]; 3.5 nM in [2]; 0.84 nM in [3]; 43 nM in data set [4]; 110 nM in data set [5]; 3.4 nM in [6]. This compound also gave a CC50 in data set [9] of 5600 nM.

With `COc1cc(NC(C(=O)c2c[nH]c3c(C)cc(Cl)cc23)c2ccc(F)cc2OCCO)cc(S(C)(=O)=O)c1` (single isomer, unassigned) [Compound 9A, 1-(5-chloro-7-methyl-1H-indol-3-yl)-2-(4-fluoro-2-(2-hydroxyethoxy)phenyl)-2-((3-methoxy-5-(methylsulfonyl)phenyl)amino)ethanone], the EC50 was 0.39 nM in data set [1]; 1.4 nM in data set [2]; 0.61 nM in data set [3]; 16 nM in data set [4]; 110 nM in [5]. This compound had a CC50 at 3 days in data set [8] of more than 2500 nM. Further, the CC50 in data set [9] was found to be 3200 nM.

Turning to `COc1cc(NC(C(=O)c2c[nH]c3ccc(OC(F)(F)F)cc23)c2ccc(F)cc2OCCO)cc(S(C)(=O)=O)c1` (single isomer, unassigned) [Compound 10B, 2-(4-fluoro-2-(2-hydroxyethoxy)phenyl)-2-((3-methoxy-5-(methylsulfonyl)phenyl)amino)-1-(5-(trifluoromethoxy)-1H-indol-3-yl)ethanone], the EC50 in data set [1] is 0.12 nM; in [2], 0.2 nM; in [3], 0.057 nM; in [4], 2.1 nM; in [5], 12 nM. The same compound had a CC50 at 3 days in data set [8] of more than 2500 nM. Besides, the CC50 in data set [9] was 2600 nM.

`COc1cc(NC(C(=O)c2c[nH]c3c(C)cc(OC(F)(F)F)cc23)c2ccc(F)cc2OCCO)cc(S(C)(=O)=O)c1` (single isomer, unassigned) [Compound 12A, 2-(4-fluoro-2-(2-hydroxyethoxy)phenyl)-2-((3-methoxy-5-(methylsulfonyl)phenyl)amino)-1-(7-methyl-5-(trifluoromethoxy)-1H-indol-3-yl)ethanone]: the EC50 in [1] came out at 0.099 nM; in [2], 0.2 nM; in [3], 0.075 nM; in [4] it was 3.2 nM; in data set [5] it was 14 nM. In data set [8], this compound came in with a CC50 at 3 days of more than 1000 nM. In addition, the CC50 in data set [9] came out at 2200 nM.
